Reference: patent US11220548B2, “Treatment of C1013G/CXCR4-associated Waldenstrom's macroglobulinemia with an anti-CXCR4 antibody” (BRISTOL-MYERS SQUIBB COMPANY, priority 2013, dated 2022)

Columns and labels:
WM cells [1] = settings: cited from earlier work
WM cells [2] = settings: cited from earlier work; remark: listed apart in the source
[3] = test system: C1013G/CXCR4-WM cell lines (BCWM1; MWCL1); experiment: Cytotoxicity (MTT) of anti-WM agents, 48 h exposure; assay type: cell-based, human; settings: vs control vector-infected cells
Description: FIGS. 13A and 13B show GSEA enrichment plots of multiple drug resistance and response to drug signature genes in C1013G/CXCR4-mutated cells and control vector-infected cells (control cells), respectively. The plotted curves show the enrichment score and reflect the degree to which each gene (vertical lines) is represented at the top or bottom of the ranked gene list. The heat map indicates the relative abundance (left to right) of the genes specifically enriched in the mutated cells as compared with the control cells. Gene sets were considered enriched with a FDR always <0.25. Normalized enrichments score (NES) and FDR are shown per each gene set analyzed. FIGS. 13C-13G show the effects on C1013G/CXCR4-WM cell lines (BCWM1; MWCL1) or control vector-infected cells (control) exposed to everolimus, ibrutinib, idelalisib, bortezomib, and carfilzomib for 48 h.
Everolimus, idelalisib, ibrutinib, bortezomib, and carfilzomib were purchased from Selleck Chemicals (Houston, Tex.). Drugs were dissolved in dimethylsulfoxide and subsequently diluted in cell culture medium (10% fetal bovine serum) immediately before use.

BCWM.1-mCherry+ cells = experiment: In vivo homing and tumor progression of wild-type WM cells; parameters: species or system SCID/Bg mice; settings: human IgM ELISA at end of study; P<0.05
Description: Serum was collected at the end of the study. […] Cell toxicity was performed by MTT. […] Bars indicate standard deviation.
Human serum IgM levels were determined by using a human IgM ELISA assay (ZeptoMetrix, Buffalo, N.Y.), according to the manufacturer's protocol.
SCID/Bg mice (n=5/group) were injected with BCWM.1 infected with either precision LentiORF/CXCR4/GFP (CXCR4^+)- or empty vector probe/RFP (control)-infected BCWM.1 cells. After three weeks, mice were euthanized and organs harvested. Hematoxylin-eosin staining, immunohistochemistry for human-CD20 and -CXCR4 were performed on explanted organs. Independent experiments were conducted to evaluate differences in survival (SCID/Bg mice, n=7/group). Similar studies were conducted using […]/CXCR4-mutated cells and control vector-infected cells (control cells). In vivo homing studies were performed using BCWM.1-mCherry^+ cells: cells were injected intravenously into […] mice and treated with either BMS-936564 or control antibody (10 mg/kg, intraperitoneally; 3-4 times per week for 3 weeks). The ability of BMS-936564 to modulate WM homing to BM, spleen and lymph nodes was evaluated ex vivo at the third week on explanted tissues, by using a fluorescence microscope (Nikon Eclipse 80i, Melville, N.Y.) (Roccaro et al., 2013).
The anti-WM activity of BMS-936564 was also tested in vivo using wild-type WM cells. BCWM.1-mCherry^+ cells were injected intravenously into SCID/Bg mice and treated mice with either BMS-936564 or control antibody.
As CXCR4 inhibition is thought to induce stem cell and tumor cell mobilization, it was hypothesized that BMS-936564 may also induce mobilization of WM cells leading to increased chemosensitivity to anti-WM agents. Accordingly, the effect of BMS-936564 in modulating tumor progression and WM cell dissemination to distant BM niches in vivo was evaluated as monotherapy or in combination with bortezomib.

Row | SMILES | adhesion of WM cells to fibronectin, stromal cells, and endothelial cells (WM cells [1]) | migration of WM cells (WM cells [2]) | sensitivity of C1013G/CXCR4-mutated WM cells compared with unmutated control cells [3] | serum IgM levels (BCWM.1-mCherry+ cells)
1 | c1cc(CN2CCCNCCNCCCNCC2)ccc1CN1CCCNCCNCCCNCC1 [AMD3100, plerixafor] | significantly inhibit | significantly inhibit | – | –
2 | CC(C)C[C@H](NC(=O)[C@H](Cc1ccccc1)NC(=O)c1cnccn1)B(O)O [bortezomib, reference compound] | – | – | equally sensitive | significantly reduced
3 | CC(C)C[C@H](NC(=O)[C@H](CCc1ccccc1)NC(=O)CN1CCOCC1)C(=O)N[C@@H](Cc1ccccc1)C(=O)N[C@@H](CC(C)C)C(=O)[C@@]1(C)CO1 [carfilzomib] | – | – | equally sensitive | –
4 | CO[C@H]1C[C@@H]2CC[C@@H](C)[C@@](O)(O2)C(=O)C(=O)N2CCCC[C@H]2C(=O)O[C@H]([C@H](C)C[C@@H]2CC[C@@H](OCCO)[C@H](OC)C2)CC(=O)[C@H](C)/C=C(\C)[C@@H](O)[C@@H](OC)C(=O)[C@H](C)C[C@H](C)/C=C/C=C/C=C/1C [everolimus] | – | – | resistance | –
5 | CC[C@H](Nc1ncnc2[nH]cnc12)c1nc2cccc(F)c2c(=O)n1-c1ccccc1 [idelalisib] | – | – | resistance | –
